Assay results from US5457106A, “Pyridine derivatives, their production and use” (Takeda Chemical Industries, Ltd., priority 1991, dated 1995).
Where a name gives a salt, the structure may show the parent alone. Each block holds one compound with its values, some of them ahead of it.

Experiments:
cyclooxygenase = target: T1, cyclooxygenase (Rattus norvegicus, UniProt Q63921); assay: Cyclooxygenase inhibitory activity (HHT formation from arachidonic acid in rat platelet-rich plasma); format: cell-based, rat (Jcl:wistar)
T1 construct: from tissue; host or cells: platelets in platelet-rich plasma from rat abdominal aorta blood (Jcl:wistar, male)
T1 sequence (Q63921 27-602): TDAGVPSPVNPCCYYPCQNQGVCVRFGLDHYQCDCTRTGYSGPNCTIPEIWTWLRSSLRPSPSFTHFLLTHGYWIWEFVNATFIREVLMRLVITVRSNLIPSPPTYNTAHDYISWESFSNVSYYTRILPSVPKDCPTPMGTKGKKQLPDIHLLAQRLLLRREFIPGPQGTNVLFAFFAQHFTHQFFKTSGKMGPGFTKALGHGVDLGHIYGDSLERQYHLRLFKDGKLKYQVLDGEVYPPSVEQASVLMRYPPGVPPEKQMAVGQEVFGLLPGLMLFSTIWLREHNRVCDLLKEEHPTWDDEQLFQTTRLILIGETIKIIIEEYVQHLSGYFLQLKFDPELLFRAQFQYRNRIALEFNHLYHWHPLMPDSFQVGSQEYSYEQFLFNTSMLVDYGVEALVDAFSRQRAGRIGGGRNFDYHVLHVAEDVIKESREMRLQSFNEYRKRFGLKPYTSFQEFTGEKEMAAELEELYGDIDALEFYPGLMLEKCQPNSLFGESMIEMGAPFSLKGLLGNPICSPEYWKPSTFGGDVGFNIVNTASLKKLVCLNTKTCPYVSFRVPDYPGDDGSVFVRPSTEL

[1] = system: ART (antigen-responding T-cell); assay: In vitro ART (antigen-responding T-cell) proliferation test; format: cell-based, Lewis rat; settings: for inhibition at 1 µM / inhibition at 10 µM: Rattus norvegicus, T-cell, read-out: % Inhibition of ART growth
[2] = system: Mouse phenylquinone writhing; assay: Mouse phenylquinone writhing inhibitory activity; format: in vivo, mouse (Slc: ICR); settings: 50 mg/kg, orally; for inhibition in vivo at 50 mg/kg: Mus musculus, po, 20 min, read-out: Inhibitory percentage (phenylquinone writhing)
Description: Mouse Phenylquinone Writhing Inhibitory Activity A Slc: ICR male mouse (4 weeks, weight 17 to 24 g) was used. A test compound suspended in 5% gum arabic solution was administered orally. After 30 minutes, 0.1 ml/10 g body weight of 0.02% phenylquinone solution in water (dissolved by the aid of 5% ethanol) was injected intraperitoneally, and writhing and stretching responses of individual animals were measured for 20 minutes [Siegmund, E., Cadmus, R. and Lu, G.; Proc. Soc. exp. Biol. Med. 95, (1957)].

IC50 (cyclooxygenase): 12 µM
Compound: O=C1c2ccccc2C(O)N1CCCOc1ccncc1 (stereo not drawn) [Example 99, 4-[3-(3-hydroxyisoindolin-1-on-2-yl)propyloxy]pyridine]

Compound: CC(C)(C)C(=O)Nc1ncccc1SCN1C(=O)c2ccccc2C1=O [Example 74, 3-(phthalimidomethylthio)-2-pivaloylaminopyridine]
inhibition at 1 µM ([1]; 1 μM): -3%
inhibition at 10 µM [1]: 52%
inhibition in vivo at 50 mg/kg [2]: 51%

IC50 (cyclooxygenase): 6.6 µM
Compound: Cn1cccc1C(=O)NCCCSc1ccncc1 [Example 45, 4-[3-(1-methyl-2-pyrrolecarbonylamino)propylthio]pyridine]

Compound: CC1(C)NC(=O)N(CCCCSc2ccncc2)C1=O [Example 140, 5,5-dimethyl-3-[4-(4-pyridylthio)butyl]hydantoin]
inhibition at 1 µM ([1]; 1 μM): -9%
inhibition at 10 µM [1]: -25%

IC50 (cyclooxygenase): 5.4 µM
Compound: O=C(NCCCSc1ccncc1)c1cccc2ccccc12 [Example 27, 4-[3-(1-naphthoylamino)propylthio]pyridine hydrochloride]

IC50 (cyclooxygenase): 6 µM
Compound: O=C1SC(=Cc2ccccc2)C(=O)N1CCCSc1ccncc1 [Example 154, 4-[3-(5-benzylidene-2,4-thiazolidinedione)propylthio]pyridine]
inhibition at 1 µM ([1]; 1 μM): 16%
inhibition at 10 µM [1]: 27%

Compound: CC(C)(C)C(=O)NCCCOc1ccncc1 [Example 86, 4-(3-pivaloylaminopropyloxy) pyridine]
inhibition in vivo at 50 mg/kg [2]: 51%

IC50 (cyclooxygenase): 5.1 µM
Compound: CCCCCC(=O)NCCCSc1ccncc1 [Example 15, 4-[3-(hexanoylamino)propylthio]pyridine]

Compound: O=C1SC(=Cc2ccccc2)C(=O)N1CCCCSc1ccccn1 [Example 164, 2-[4-(5-benzylidene-2,4-thiazolidinedione)butylthio]pyridine]
inhibition at 1 µM ([1]; 1 μM): 3%
inhibition at 10 µM [1]: -54%

IC50 (cyclooxygenase): 2.9 µM
Compound: CCCCc1ccc(C(=O)NCCCSc2ccncc2)cc1 [Example 34, 4-[3-(4-n-butylbenzoylamino)propylthio]pyridine hydrochloride]
inhibition at 1 µM ([1]; 1 μM): 31%
inhibition at 10 µM [1]: 47%

Compound: COc1ccc(C=C2SC(=O)N(CCCCSc3ccncc3)C2=O)cc1 [Example 152, 4-[4-[5-(4-methoxybenzylidene)-2,4-thiazolidinedione]butylthio]pyridine]
inhibition at 1 µM ([1]; 1 μM): -20%
inhibition at 10 µM [1]: 68%

IC50 (cyclooxygenase): 7 µM
Compound: CCCCCCCCCCCCCC(=O)NCCCSc1ccncc1 [Example 18, 4-[3-(myristoylamino)propylthio] pyridine]

IC50 (cyclooxygenase): 13 µM
Compound: O=C1[C@H]2CC=CC[C@H]2C(=O)N1CSc1ccncc1 [Example 96, 4-[cis-(1,2,3,6-tetrahydrophthalimido)methylthio]pyridine]

IC50 (cyclooxygenase): 4.3 µM
Compound: O=C1c2ccccc2C(O)N1CCCCSc1ccncc1 (stereo not drawn) [Example 107, 4-[4-(3-hydroxyisoindolin-1-on-2-yl)butylthio]pyridine]

IC50 (cyclooxygenase): 4.6 µM
Compound: O=C(N(CCSc1ccncc1)Cc1ccccc1)C(F)(F)F [Example 119, 4-[2-(N-benzyl-N-trifluoroacetylamino)ethylthio]pyridine]
inhibition at 1 µM ([1]; 1 μM): 13%
inhibition at 10 µM [1]: 43%

IC50 (cyclooxygenase): 11 µM
Compound: O=C(NCCCOc1ccccn1)c1cccs1 [Example 61, 2-[3-(2-thenoylamino)propyloxy]pyridine]

IC50 (cyclooxygenase): 1.1 µM
Compound: CCCCCCCCCC(=O)NCCCCSc1ccncc1 [Example 8]

Compound: O=C(c1ccccc1)N(CCSc1ccncc1)Cc1ccccc1 [Example 120, 4-[2-(N-benzyl-N-benzoylamino)ethylthio]pyridine]
inhibition at 1 µM ([1]; 1 μM): 16%
inhibition at 10 µM [1]: 74%

Compound: O=C1c2ccccc2C(=O)N1COc1ccccn1 [Example 67, 2-(phthalimidomethyloxy)pyridine]
inhibition in vivo at 50 mg/kg [2]: 49%

Compound: O=C(c1ccccc1)N(CCOc1ccncc1)Cc1ccccc1 [Example 117, 4-[2-(N-benzyl-N-benzoyl)aminoethyloxy]pyridine]
% Inhibition of ART growth ([1]; 1 μM): 3%
inhibition at 10 µM [1]: 39%

IC50 (cyclooxygenase): 3.1 µM
Compound: O=C(NCCCCOc1ccncc1)c1ccccc1CO [Example 148, 4-[4-(2-hydroxymethylbenzoyl)aminobutyloxy]pyridine]

IC50 (cyclooxygenase): 6 µM
Compound: O=C(NCCCSc1ccncc1)c1ccccc1O [Example 36, 4-[3-(salicyloylamino)propylthio]pyridine hydrochloride]

IC50 (cyclooxygenase): 2.2 µM
Compound: CCCCCCCCCC(=O)NCCCCCCSc1ccncc1 [Example 10]

IC50 (cyclooxygenase): 12 µM
Compound: O=C1c2ccccc2S(=O)(=O)N1CCCCSc1ccncc1 [Example 166, 4-(4-saccharinbutylthio)pyridine]

Compound: O=C1CSC(=O)N1CCCCSc1ccncc1 [Example 160, 4-[4-(2,4-thiazolidinedione)butylthio]pyridine]
inhibition at 1 µM ([1]; 1 μM): -14%
inhibition at 10 µM [1]: 33%

IC50 (cyclooxygenase): 6.6 µM
Compound: COc1ccc(C(=O)NCCCSc2ccncc2)cc1 [Example 30, 4-[3-(4-methoxybenzoylamino)propylthio]pyridine]

Compound: CC(=O)N(CCCSc1ccncc1)Cc1ccccn1 [Example 79, 4-[3-(N-2-pyridylmethyl-N-acetylamino)propylthio]pyridine]
inhibition in vivo at 50 mg/kg [2]: 48%

IC50 (cyclooxygenase): 12.9 µM
Compound: CCCCCCCC(=O)NCCCSc1ccncc1 [Example 16]

IC50 (cyclooxygenase): 3.8 µM
Compound: O=C(NCCSc1ccncc1)c1cccs1 [Example 122, 4-(2-thenoylaminoethylthio)pyridine]

IC50 (cyclooxygenase): 3.3 µM
Compound: O=C(/C=C/c1cnc2ccccc2c1)NCCCSc1ccncc1 [Example 44, 4-[3-(3-quinolineacryloylamino)propylthio]pyridine]

IC50 (cyclooxygenase): 2.2 µM
Compound: CCCCCCCCCC(=O)NCCCCCSc1ccncc1 [Example 9]

Compound: O=C(NCCCOc1ccncc1)c1cccnc1 [Example 87, 4-(3-nicotinoylaminopropyloxy)pyridine]
inhibition in vivo at 50 mg/kg [2]: 47%

IC50 (cyclooxygenase): 4.4 µM
Compound: CCCCCCCCCC(=O)NCCSc1ccncc1 [Example 7]

IC50 (cyclooxygenase): 4.4 µM
Compound: O=C(CCCc1ccccc1)NCCCSc1ccncc1 [Example 39, 4-[3-(4-phenyl-n-butyrylamino)propylthio]pyridine]

Compound: O=C(NCCCSc1cccnc1)c1cccs1 [Example 48, 3-[3-(thenoylamino)propylthio]pyridine]
inhibition in vivo at 50 mg/kg [2]: 31%

Compound: O=C(NCCCSc1ccncc1)C1CCCCC1 [Example 23, 4-[3-(cyclohexanoylamino)propylthio]pyridine hydrochloride]
inhibition in vivo at 50 mg/kg [2]: 58%

IC50 (cyclooxygenase): 3.6 µM
Compound: O=C(NCCSc1ccncc1)c1ccccc1O [Example 168, 4-[2-(2-hydroxybenzoyl)aminoethylthio]pyridine]

Compound: Cl.Cl.O=C(c1ccccc1)N(CCCSc1ccncc1)Cc1ccccn1 [Example 82, 4-[3-(N-2-pyridylmethyl-N-benzoylamino)propylthio]pyridine dihydrochloride]
Inhibitory percentage (phenylquinone writhing) [2]: 47%

Compound: O=C(c1ccccc1)N(CCCSc1ccncc1)Cc1cccs1 [Example 92, 4-[3-(N-(2-thienylmethyl)-N-benzoylamino)propylthio]pyridine]
Inhibitory percentage (phenylquinone writhing) [2]: 74%

Compound: O=C(NCCCOc1ccncc1)c1cc2ccccc2s1 [Example 115, 4-[3-(thianaphthene-2-carbonyl)aminopropyloxy]pyridine hydrochloride]
inhibition at 1 µM ([1]; 1 μM): 18%
inhibition at 10 µM [1]: 53%

IC50 (cyclooxygenase): 13.2 µM
Compound: CCCC(=O)NCCCSc1ccncc1 [Example 14, 4-[3-(butyrylamino)propylthio]pyridine]

IC50 (cyclooxygenase): 3.7 µM
Compound: O=C(NCCCCSc1ccncc1)c1ccccc1CO [Example 106, 4-[4-(2-hydroxymethylbenzoyl)aminobutylthio]pyridine]
